Patent US5059624A, “Guanidine derivatives having hypotensive activity, composition containing them and process for obtaining them” (Consiglio Nazionale Delle Ricerche, priority 1988, dated 1991)
Where a SMILES comes first, the peptide text is derived from it.

Tested on: male Wistar rats
Test: Comparison with known active ingredients in male Wistar rats under sodium thiopental anaesthesia, rapid i.v. or 5 min infusion
Format: in vivo, rat (male Wistar)
Protocol: In order to compare the activity of the compounds of the present invention to that of the products of the prior art, various doses of known anti-hypertensive, hypotensive and vasoactive drugs were administered to male Wistar rats under general anaesthesia by sodium thiopental (50 mg/kg, i.p.). The administration was effected through "rapid" i.v. route or through intravenous infusion (inf.) for a time of 5 minutes.
The dose of each product is referred to the base, and the volumes injected were of 100 mcl in case of i.v. administration and […] total (0.9% sodium chloride solution) in case of infusion. The various parameters were evaluated in the same way as in the preceding experiments.

[1] = 0.75 mcg/kg, i.v., maximum response
[2] = 5 mg/kg, inf., maximum response
[3] = 2.5 mg/kg, i.v., maximum response
[4] = 1 mcg/kg, i.v., maximum response
[5] = 2 mg/kg, i.v., maximum response
[6] = 5 mcg/kg, i.v., maximum response

NC(N)=NCCC[C@H](NC(=O)[C@H](Cc1ccccc1)NC(=O)[C@@H]1CCCN1C(=O)[C@H](CO)NC(=O)[C@H](Cc1ccccc1)NC(=O)CNC(=O)[C@@H]1CCCN1C(=O)[C@@H]1CCCN1C(=O)[C@@H](N)CCCN=C(N)N)C(=O)O [Bradykinin] (H-RPPGFSPFR-OH)
Δ AP DIASTOLIC [1]: -18 ± 4 mmHg | Δ AP SYSTOLIC [1]: -18 ± 3 mmHg | Δ HR [1]: -11 ± 2 beats/min | Δ dp/dt [1]: -830 ± 124 mmHg/sec

COC(=O)[C@H]1[C@H]2C[C@@H]3c4[nH]c5cc(OC)ccc5c4CCN3C[C@H]2C[C@@H](OC(=O)c2cc(OC)c(OC)c(OC)c2)[C@@H]1OC [Reserpine]
Δ AP DIASTOLIC [2]: -24 ± 5 mmHg | Δ AP SYSTOLIC [2]: -31 ± 6 mmHg | Δ HR [2]: -47 ± 9 beats/min | Δ dp/dt [2]: -1580 ± 134 mmHg/sec | general effects on the various haemodynamic parameters (in words) (rat): general "depressive" effects

C[N+](C)(C)CCCCCC[N+](C)(C)C [Hexameton]
Δ AP DIASTOLIC [3]: -34 ± 2 mmHg | Δ AP SYSTOLIC [3]: -44 ± 2 mmHg | Δ HR [3]: -48 ± 9 beats/min | Δ dp/dt [3]: -4040 ± 812 mmHg/sec

Clc1cccc(Cl)c1N=C1NCCN1 [Clonidine]
general effects on the various haemodynamic parameters (in words) (rat, in vivo): general "depressive" effects | Δ AP DIASTOLIC (rat, in vivo): -9 ± 1 mmHg | Δ AP SYSTOLIC (rat, in vivo): -15 ± 4 mmHg | Δ HR (rat, in vivo): -40 ± 8 beats/min | Δ dp/dt (rat, in vivo): -871 ± 74

NC[C@H](O)c1ccc(O)c(O)c1 [Noradrenaline]
Δ AP DIASTOLIC [4]: +31 ± 2 mmHg | Δ AP SYSTOLIC [4]: +44 ± 3 mmHg | Δ HR [4]: +14 ± 4 beats/min | Δ dp/dt [4]: +4314 ± 415 mmHg/sec

COc1ccc(Cc2nccc3cc(OC)c(OC)cc23)cc1OC [Papaverine]
Δ AP DIASTOLIC [5]: -18 ± 3 mmHg | Δ AP SYSTOLIC [5]: -23 ± 3 mmHg | Δ HR [5]: -21 ± 5 beats/min | Δ dp/dt [5]: -604 ± 102 mmHg/sec | general effects on the various haemodynamic parameters (in words) (rat): general "depressive" effects

NCCc1c[nH]cn1 [Histamine]
Δ AP DIASTOLIC [6]: -28 ± 3 mmHg | Δ AP SYSTOLIC [6]: -30 ± 3 mmHg | Δ HR [6]: -7 ± 1 beats/min | Δ dp/dt [6]: -1314 ± 180 mmHg/sec

NCCc1c[nH]c2ccc(O)cc12 [5-hydroxytriptamine]
Δ AP DIASTOLIC [6]: -39 ± 2 mmHg | Δ AP SYSTOLIC [6]: -37 ± 3 mmHg | Δ HR [6]: -12 ± 3 beats/min | Δ dp/dt [6]: -1410 ± 167 mmHg/sec

N=C(N)NCCN1CCCCCCC1 [Guanetidine]
Δ HR (rat, in vivo): -18 ± 6 beats/min | Δ dp/dt (rat, in vivo): -863 ± 160
